Measured values: US10993957B2 (NuCana plc, priority 2011, dated 2021)
Where two headings read alike, the source gives them in different places.

Columns and labels:
L1210/TK^− = experiment: Cytostatic assay, thymidine kinase-deficient L1210/TK^− cells; type: cell-based, murine; conditions: for CC50: L1210, Table 1, read-out: CC50 L1210/TK^−; for IC50: Table 6, read-out: IC50 L1210/TK^−
HeLa = experiment: Cytostatic assay, HeLa cells; type: cell-based; conditions: for CC50: Table 1, read-out: CC50 HeLa; for IC50: Table 6, read-out: IC50 HeLa
Text: (§1) The cell lines employed were L1210/0 (a leukemia cell line), FM3A/0 (a breast cancer cell line), Cem/0 (an acute lymphoblastic leukemia cell line) and HeLa (a cervical cell line).

Cem/TK^− = experiment: Cytostatic assay, thymidine kinase-deficient CEM/TK^− cells; type: cell-based, human; conditions: for IC50: Table 6, read-out: IC50 Cem/TK^−; for CC50: Table 1, read-out: CC50 Cem/TK^−
FM3A/0 = experiment: Cytostatic assay, FM3A/0 cells; type: cell-based; conditions: Mus musculus
Method: The samples were assayed for biological activity versus a range of tumour cell lines with data recorded in Table 1 below. […] The cell lines employed were L1210/0 (a leukemia cell line), FM3A/0 (a breast cancer cell line), Cem/0 (an acute lymphoblastic leukemia cell line) and HeLa (a cervical cell line).

L1210/0 = experiment: Cytostatic assay, L1210/0 cells; type: cell-based, murine; conditions: for IC50: read-out: IC50 L1210/0
Text: as §1

HeLa/TK^− = experiment: Cytostatic assay, HeLa/TK^− cells; type: cell-based; conditions: Table 6, read-out: IC50 HeLa/TK^−
Text: as §1

Cem/0 = experiment: Cytostatic assay, CEM/0 cells; type: cell-based, human; conditions: for CC50: Table 1, read-out: CC50 Cem/0; for IC50: Table 6, read-out: IC50 Cem/0
Text: as §1

Cem/hEnt-0 = experiment: Cytostatic assay, CEM cells lacking the hEnt1 transporter; type: cell-based; conditions: read-out: IC50 Cem/hEnt-0
Text: (§2) Data are mean (±SD) of at least two to four independent experiments. Table 8 identifies the phosphoramidate motif of compounds embodying the present invention, as discussed above with respect to Table 6, but with “Naph” standing for 1-naphthyl.

Cem/hEnt-1 = experiment: Cytostatic assay, CEM cells containing the hEnt1 transporter; type: cell-based
Text: as §2

L1210.Hyor = experiment: Cytostatic assay, Mycoplasma hyorhinis-infected L1210 cells; conditions: for % Retention: CC50 L1210 × 100 ÷ CC50 L1210/Hyor
Summary of the method: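 Suspension L1210/0 murine leukaemia cells infected with M. hyorhinis, seeded at 60,000 cells/well with test compound in DMEM/10% FBS and grown 48 h at 37 °C, 5% CO2. Cell number counted by Coulter counter; activity also expressed as % retained versus uninfected cells.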

[1] = Mus musculus, L1210/0, Table 1, read-out: CC50 L1210/0
[2] = Mus musculus, L1210, read-out: CC50 L1210/Hyor
[3] = Mus musculus, L1210, read-out: IC50 L1210.Hyor
[4] = Mus musculus, L1210/0, Table 2, mycoplasma negative cells, read-out: CC50 L1210
[5] = Homo sapiens, CCRF-CEM, read-out: IC50 Cem/hEnt-1
[6] = read-out: IC50 Cem/hEnt-1 + NBMPR, in the presence of NBMPR
[7] = read-out: IC50 Cem/hEnt-1 + dipyridamole, in the presence of dipyridamole
[8] = read-out: IC50 L1210.Hyor, Table 7

Compound | CC50 (L1210/TK^−; Mus musculus) [nM] | IC50 (L1210/TK^−; Mus musculus, L1210) [nM] | IC50 (HeLa; Homo sapiens, HeLa) [nM] | IC50 (Cem/TK^−; Homo sapiens, CEM-TK(-)) [nM] | CC50 (L1210/0; [1]) [nM] | IC50 (L1210/0; Mus musculus, L1210/0, Table 6) [nM] | IC50 (HeLa/TK^−; Homo sapiens, HeLa) [nM] | CC50 (Cem/0; Homo sapiens, CCRF-CEM) [nM] | IC50 (Cem/0; Homo sapiens, CCRF-CEM) [nM] | % Retention (L1210.Hyor) [%] | IC50 (L1210.Hyor; [3]) [nM] | IC50(L1210.Hyor)/IC50(L1210/0) (L1210.Hyor; Table 7) | IC50 (L1210/0; Mus musculus, L1210/0, Table 7) [nM] | IC50 (L1210/TK^−) [nM] | IC50 (HeLa) [nM] | IC50 (Cem/TK^−) [nM] | IC50 (L1210.Hyor; [8]) [nM] | IC50 (L1210/0; Table 6) [nM] | IC50 (L1210/0; Table 7) [nM] | IC50 (HeLa/TK^−) [nM] | other results
O=c1[nH]cc(F)c(=O)[nH]1 [5-FU, 5-Fluorouracil, reference compound] | 320 ± 310 | 320 ± 310 | 540 ± 120 | 12000 ± 1000 | 330 ± 170 | 330 ± 170 | 230 ± 10 | 18000 ± 5000 | 18000 ± 5000 | – | – | – | – | – | – | – | – | – | – | – | CC50 (HeLa; Homo sapiens, HeLa): 540 ± 120 nM; CC50 (FM3A/0; FM3A/0, Table 1, read-out: CC50 FM3A/0): 180 ± 20 nM
O=c1[nH]c(=O)n([C@H]2C[C@H](O)[C@@H](COP(=O)(O)O)O2)cc1F [5-FdUMP, 5-fluoro-2′-deoxyuridine-5′-monophosphate, reference compound] | – | – | – | – | – | – | – | – | – | – | – | – | – | – | – | – | – | – | – | – | IC50 (Cem/hEnt-0; Homo sapiens, CCRF-CEM, Table 8): 3600 ± 690 nM; IC50 (Cem/hEnt-1; Homo sapiens, CCRF-CEM, Table 8, read-out: IC50 Cem/hEnt-1): 50 ± 20 nM; IC50 (Cem/hEnt-1; Homo sapiens, CCRF-CEM, in the presence of NBMPR, read-out: IC50 Cem/hEnt-1 + NBMPR): 1060 nM; IC50 (Cem/hEnt-1; Homo sapiens, CCRF-CEM, in the presence of dipyridamole, read-out: IC50 Cem/hEnt-1 + dipyridamole): 1740 nM
CC(C)(NP(=O)(OC[C@H]1O[C@@H](n2cc(F)c(=O)[nH]c2=O)CC1O)Oc1ccccc1)C(=O)OCc1ccccc1 (stereo partly drawn) [CPF 393, 5-Fluoro-2′deoxyuridine-5′-O-[phenyl (benzoxy-α,α-dimethylglycine)]phosphate] | 180 ± 50 | 180 ± 50 | 240 ± 70 | 4800 ± 700 | 17 ± 3 | 17 ± 3 | 3700 ± 100 | 230 ± 40 | 230 ± 40 | 145 | 20 ± 2 | 0.69 | 29 ± 1 | – | – | – | – | – | – | – | IC50 (Cem/hEnt-0; Homo sapiens, CCRF-CEM): 1200 ± 110 nM; CC50 (Cem/TK^−; Homo sapiens, CEM-TK(-)): 4800 ± 700 nM; CC50 (L1210.Hyor; [2]): 20 nM; CC50 (L1210/0; [4]): 29 nM; IC50 (Cem/hEnt-1; [5]): 170 ± 60 nM; IC50 (Cem/hEnt-1; [6]): 610 nM; IC50 (Cem/hEnt-1; [7]): 260 nM
CCOC(=O)C(C)(C)NP(=O)(OC[C@H]1O[C@@H](n2cc(F)c(=O)[nH]c2=O)CC1O)Oc1ccccc1 (stereo partly drawn) [CPF 394, 5-Fluoro-2′deoxyuridine-5′-O-[phenyl (ethoxy-α,α-dimethylglycine)]phosphate] | 4600 | 4600 | 590 ± 90 | 22000 ± 1000 | 39 ± 1 | 39 ± 1 | 17000 ± 2000 | 650 ± 160 | 650 ± 160 | 12 | 260 ± 10 | 8.7 | 30 ± 0.5 | – | – | – | – | – | – | – | IC50 (Cem/hEnt-0; Homo sapiens, CCRF-CEM): 5800 ± 500 nM; CC50 (Cem/TK^−; Homo sapiens, CEM-TK(-)): 22000 ± 1000 nM; CC50 (L1210.Hyor; [2]): 260 nM; CC50 (L1210/0; [4]): 30 nM; IC50 (Cem/hEnt-1; [5]): 370 ± 140 nM; IC50 (Cem/hEnt-1; [6]): 2560 nM; IC50 (Cem/hEnt-1; [7]): 2350 nM
CC(C)(NP(=O)(OCC1OC(n2cc(F)c(=O)[nH]c2=O)CC1O)Oc1cccc2ccccc12)C(=O)OCc1ccccc1 (stereo not drawn) [CPF 395, 5-Fluoro-2′deoxyuridine-5′-O-[1-naphthyl (benzoxy-α,α-dimethylglycine)]phosphate] | – | – | – | – | – | – | – | – | – | 42 | – | 2.4 | – | 130 ± 40 | 78 ± 20 | 2400 ± 800 | 45 ± 4 | 11 ± 5 | 19 ± 4 | 3100 ± 600 | IC50 (Cem/hEnt-0; Table 8): 400 ± 130 nM; CC50 (L1210.Hyor; read-out: CC50 L1210/Hyor, Table 2, mycoplasma positive cells): 45 nM; CC50 (L1210/0; Table 2, mycoplasma negative cells, read-out: CC50 L1210): 19 nM; IC50 (Cem/0): 160 ± 20 nM; IC50 (Cem/hEnt-1; Table 8, read-out: IC50 Cem/hEnt-1): 50 ± 30 nM; IC50 (Cem/hEnt-1; in the presence of NBMPR, read-out: IC50 Cem/hEnt-1 + NBMPR): 280 nM; IC50 (Cem/hEnt-1; in the presence of dipyridamole, read-out: IC50 Cem/hEnt-1 + dipyridamole): 160 nM
CCOC(=O)C(C)(C)NP(=O)(OC[C@H]1O[C@@H](n2cc(F)c(=O)[nH]c2=O)CC1O)Oc1cccc2ccccc12 (stereo partly drawn) [CPF 396, 5-Fluoro-2′deoxyuridine-5′-O-[1-naphthyl (ethoxy-α,α-dimethylglycine)]phosphate] | 820 ± 160 | 820 ± 160 | 200 ± 120 | 6900 ± 1800 | 64 ± 8 | 64 ± 8 | 3200 | 360 ± 50 | 360 ± 50 | 33 | 170 ± 30 | 3 | 56 ± 40 | – | – | – | – | – | – | – | IC50 (Cem/hEnt-0; Homo sapiens, CCRF-CEM): 1400 ± 200 nM; CC50 (Cem/TK^−; Homo sapiens, CEM-TK(-)): 6900 ± 1800 nM; CC50 (L1210.Hyor; [2]): 170 nM; CC50 (L1210/0; [4]): 56 nM; IC50 (Cem/hEnt-1; [5]): 210 ± 70 nM; IC50 (Cem/hEnt-1; [6]): 620 nM; IC50 (Cem/hEnt-1; [7]): 520 nM
C[C@H](NP(=O)(OC[C@H]1O[C@@H](n2cc(F)c(=O)[nH]c2=O)CC1O)Oc1cccc2ccccc12)C(=O)OC1CCCCC1 (stereo partly drawn) [CPF 509, 5-Fluoro-2′deoxyuridine-5′-O-[1-naphthyl (cyclohexoxy-L-alaninyl)]phosphate] | 150 | 150 | 90 ± 14 | 1000 ± 100 | 43 ± 23 | 43 ± 23 | – | 57 ± 55 | 57 ± 55 | – | 49 ± 4 | 1.4 | 36 ± 17 | – | – | – | – | – | – | – | CC50 (HeLa; Homo sapiens, HeLa): 90 ± 14 nM; CC50 (FM3A/0; FM3A/0, read-out: CC50 FM3A/0): 310 ± 60 nM
O=C(OCc1ccccc1)C(Cc1ccccc1)NP(=O)(OCC1OC(n2cc(F)c(=O)[nH]c2=O)CC1O)Oc1ccccc1 (centres unmarked) [Ph Bn Phe] | – | – | – | – | – | – | – | – | – | – | – | 35 | – | 39000 ± 4000 | 14 ± 7 | 11000 ± 3000 | 560 ± 23 | 36 ± 10 | 16 ± 1.4 | 12000 ± 2000 | IC50 (Cem/0): 250 ± 20 nM
CCOC(=O)C(NP(=O)(OCC1OC(n2cc(F)c(=O)[nH]c2=O)CC1O)Oc1ccccc1)C(C)C (centres unmarked) [Ph Et Val] | – | – | – | – | – | – | – | – | – | – | – | 22 | – | 42000 ± 2000 | 1200 ± 300 | > 250000 | 4400 ± 1100 | 160 ± 50 | 200 ± 33 | 27000 ± 7000 | IC50 (Cem/0): 1000 ± 100 nM
CCCCCOC(=O)C(CCSC)NP(=O)(OCC1OC(n2cc(F)c(=O)[nH]c2=O)CC1O)Oc1ccccc1 (centres unmarked) [Ph Pnt Met] | – | – | – | – | – | – | – | – | – | – | – | 3.2 | – | 2200 ± 500 | 150 | 13000 ± 1000 | 410 ± 210 | 110 ± 60 | 130 ± 7.8 | 7100 ± 1200 | IC50 (Cem/0): 350 ± 130 nM
